Our source for the Activity values is ChEMBL document CHEMBL5154645, “Potent Anti-SARS-CoV-2 Activity by the Natural Product Gallinamide A and Analogues via Inhibition of Cathepsin L” (J Med Chem, 2022).

This assay has as its system SARS-CoV-2. Nature of the assay: Antiviral activity against SARS-CoV-2 infected in human A549 cells overexpressing ACE2 assessed as reduction in virus-induced cytopathic effect at 625 nM incubated for 1 hr followed by viral infection measured after 96 hrs by inverted microscopy. It is filed as functional, organism-based. As to conditions: Severe acute respiratory syndrome coronavirus 2, time 97.0 hrs. (Protection from cytopathic effect is a common read-out in antiviral testing.)

Structures are written as SMILES. Active and inactive are the calls of the source. No cut-off for these calls is given here.

Regarding `CC[C@H](C)[C@@H](C(=O)O[C@@H](CC(C)C)C(=O)N[C@@H](CC(C)C)C(=O)N[C@@H](C)/C=C/C(=O)N1C(=O)C=C(OC)[C@@H]1C)N(C)C` [GALLINAMIDE A], the result was Active.
